Molecules are shown by their SMILES.

For assay [1], the system named is HP1 (TAMRA at T37) (DNA, hairpin, T37 replaced by 2'-deoxyuridine bearing TAMRA at C5) CCTGGAGAGGAAGCCAAGTGTTTTCACTTGGCTTCCTCTCCAGG
The assay is described as follows: fluorescence titration. The note with it: 50 mM NaCl; 10 mM HEPES, 1 mM EDTA, pH 7.4, 25 °C.

The test system of assay [2] is HP2 unlabeled (DNA, hairpin) GCTAGATATATAGCTTTTTAGCTATATATCTAGC
The assay is described as follows: competition fluorescence titration. Particulars: 50 mM NaCl; 10 mM HEPES, 1 mM EDTA, pH 7.4, 25 °C; TAMRA-HP2 complex displaced.

Assay [3] deals with HP1 (TAMRA at T34) (DNA, hairpin, T34 replaced by 2'-deoxyuridine bearing TAMRA at C5) CCTGGAGAGGAAGCCAAGTGTTTTCACTTGGCTTCCTCTCCAGG
The assay is described as follows: fluorescence titration. The note with it: 50 mM NaCl; 10 mM HEPES, 1 mM EDTA, pH 7.4, 25 °C.

Consider `CN(C)CCCNC(=O)CCNC(=O)c1cc(NC(=O)c2cc(NC(=O)c3nc(NC(=O)CCCNC(=O)c4cc(NC(=O)c5nc(NC(=O)c6nccn6C)cn5C)cn4C)cn3C)cn2C)cn1C`, for which, in assay [1], the Kd is 7.8 ± 1.6 nM.
In assay [1], `CN(C)CCCNC(=O)CCNC(=O)c1cc(NC(=O)c2cc(NC(=O)c3nc(NC(=O)c4cc(NC(=O)CCCNC(=O)c5cc(NC(=O)c6cc(NC(=O)c7nc(NC(=O)c8nccn8C)cn7C)cn6C)cn5C)cn4C)cn3C)cn2C)cn1C` displayed a Kd of 2.3 ± 0.3 nM.
In turn, `CN(CCCN)CCCNC(=O)CCNC(=O)c1cc(NC(=O)c2cc(NC(=O)c3cc(NC(=O)c4cc(NC(=O)CCNC(=O)c5cc(NC(=O)c6cc(NC(=O)CCCNC(=O)c7cc(NC(=O)c8cc(NC(=O)c9cc(NC(=O)CCNC(=O)c%10cc(NC(=O)c%11cc(NC(=O)c%12nccn%12C)cn%11C)cn%10C)cn9C)cn8C)cn7C)cn6C)cn5C)cn4C)cn3C)cn2C)cn1C` gave a dissociation constant Kd in assay [2] of 1.8 nM.
`CN(C)CCCNC(=O)CCNC(=O)c1cc(NC(=O)CCNC(=O)c2cc(NC(=O)c3cc(NC(=O)CCCNC(=O)c4nc(NC(=O)c5cc(NC(=O)c6nc(NC(=O)c7nccn7C)cn6C)cn5C)cn4C)cn3C)cn2C)cn1C` displayed a Kd in assay [1] of 50 ± 15 nM.
With `CN(C)CCCNC(=O)CCNC(=O)c1cc(NC(=O)c2nc(NC(=O)c3nc(NC(=O)c4cc(NC(=O)CCCNC(=O)c5cc(NC(=O)c6cc(NC(=O)c7cc(NC(=O)c8nccn8C)cn7C)cn6C)cn5C)cn4C)cn3C)cn2C)cn1C`, the Kd in assay [3] was found to be 11.4 ± 1 nM.
In assay [1], `CN(C)CCCNC(=O)CCNC(=O)c1cc(NC(=O)c2cc(NC(=O)c3cc(NC(=O)c4cc(NC(=O)CCCNC(=O)c5nc(NC(=O)CCNC(=O)c6nc(NC(=O)c7nccn7C)cn6C)cn5C)cn4C)cn3C)cn2C)cn1C` had a Kd of 140 ± 30 nM.

As a reminder, the Kd is the constant that tells how readily two partners part at equilibrium.

These data come from article PMC3299850 (2012).
